*1 amine or outer side, *2 acyl side, *3 side chain or, on linkers, in order; H or OH if unused. Where a SMILES comes first, the peptide text is derived from it. Bridges are numbered along the chain shown (N, C = ends). [ ]: non-standard residue; d: D form. The star is where a group is joined. ξ: configuration not given here. X1 = CC(C)=CCCC(C)C1CCC2(C)C3=C(CCC12C)C1(C)CCC(OC(=O)*)C(C)(C)C1CC3; ξOrn(4,5-diOH) = O=C(C(CC(O)C(O)N[*:3])N[*:1])[*:2]; ξhTyr(βOH) = NC(C(=O)O)C(O)Cc1ccc(O)cc1; ξPro(3ξ-OH,4ξ-Me) = CC1CNC(C(=O)O)C1O; Hyp = O=C(O)[CH]1C[CH](O)CN1
Target: T1, Glucan Synthase of Candida Albicans (Candida albicans, UniProt O13428)
T1 construct: 22.5 μg of membrane proteins are incubated in a mixture of 2 mM of; endogenous in cells
Experiment: Inhibition of the glucan synthase of Candida albicans (14C-UDP glucose incorporation, membrane preparation)
Assay type: biochemical
Conditions: Candida albicans membranes, 25° C., 1 hour; result in words
Description: A—Inhibition of the Glucan Synthase of Candida Albicans.
Candida albicans membranes are purified according to the process described by Tang et al Antimicrob. Agents Chemother 35, 99-103, 1991. 22.5 μg of membrane proteins are incubated in a mixture of 2 mM of ^14C-UDP glucose (specific activity=0.34 mCi./mmol, 50 μg of a α-amylase, 1 mM of dithiotreitol (DTT), 1 mM EDTA, 100 mM NaF, 7 μM of GTP-γ-S, 1M of sucrose and 50 mM of Tris-HCL (pH 7.8) in a volume of 100 μl. The medium is incubated at 25° C. for 1 hour and the reaction is terminated by adding TCA at a final concentration of 5%. The reaction mixture is transferred onto a pre-moistened glass fibre filter. The filter is washed, dried and its radioactivity is counted. Mulundocandin is used as a positive control. Control of the vehicle is carried out with the same quantity of 1% DMSO.

T1 sequence (O13428 1-1897): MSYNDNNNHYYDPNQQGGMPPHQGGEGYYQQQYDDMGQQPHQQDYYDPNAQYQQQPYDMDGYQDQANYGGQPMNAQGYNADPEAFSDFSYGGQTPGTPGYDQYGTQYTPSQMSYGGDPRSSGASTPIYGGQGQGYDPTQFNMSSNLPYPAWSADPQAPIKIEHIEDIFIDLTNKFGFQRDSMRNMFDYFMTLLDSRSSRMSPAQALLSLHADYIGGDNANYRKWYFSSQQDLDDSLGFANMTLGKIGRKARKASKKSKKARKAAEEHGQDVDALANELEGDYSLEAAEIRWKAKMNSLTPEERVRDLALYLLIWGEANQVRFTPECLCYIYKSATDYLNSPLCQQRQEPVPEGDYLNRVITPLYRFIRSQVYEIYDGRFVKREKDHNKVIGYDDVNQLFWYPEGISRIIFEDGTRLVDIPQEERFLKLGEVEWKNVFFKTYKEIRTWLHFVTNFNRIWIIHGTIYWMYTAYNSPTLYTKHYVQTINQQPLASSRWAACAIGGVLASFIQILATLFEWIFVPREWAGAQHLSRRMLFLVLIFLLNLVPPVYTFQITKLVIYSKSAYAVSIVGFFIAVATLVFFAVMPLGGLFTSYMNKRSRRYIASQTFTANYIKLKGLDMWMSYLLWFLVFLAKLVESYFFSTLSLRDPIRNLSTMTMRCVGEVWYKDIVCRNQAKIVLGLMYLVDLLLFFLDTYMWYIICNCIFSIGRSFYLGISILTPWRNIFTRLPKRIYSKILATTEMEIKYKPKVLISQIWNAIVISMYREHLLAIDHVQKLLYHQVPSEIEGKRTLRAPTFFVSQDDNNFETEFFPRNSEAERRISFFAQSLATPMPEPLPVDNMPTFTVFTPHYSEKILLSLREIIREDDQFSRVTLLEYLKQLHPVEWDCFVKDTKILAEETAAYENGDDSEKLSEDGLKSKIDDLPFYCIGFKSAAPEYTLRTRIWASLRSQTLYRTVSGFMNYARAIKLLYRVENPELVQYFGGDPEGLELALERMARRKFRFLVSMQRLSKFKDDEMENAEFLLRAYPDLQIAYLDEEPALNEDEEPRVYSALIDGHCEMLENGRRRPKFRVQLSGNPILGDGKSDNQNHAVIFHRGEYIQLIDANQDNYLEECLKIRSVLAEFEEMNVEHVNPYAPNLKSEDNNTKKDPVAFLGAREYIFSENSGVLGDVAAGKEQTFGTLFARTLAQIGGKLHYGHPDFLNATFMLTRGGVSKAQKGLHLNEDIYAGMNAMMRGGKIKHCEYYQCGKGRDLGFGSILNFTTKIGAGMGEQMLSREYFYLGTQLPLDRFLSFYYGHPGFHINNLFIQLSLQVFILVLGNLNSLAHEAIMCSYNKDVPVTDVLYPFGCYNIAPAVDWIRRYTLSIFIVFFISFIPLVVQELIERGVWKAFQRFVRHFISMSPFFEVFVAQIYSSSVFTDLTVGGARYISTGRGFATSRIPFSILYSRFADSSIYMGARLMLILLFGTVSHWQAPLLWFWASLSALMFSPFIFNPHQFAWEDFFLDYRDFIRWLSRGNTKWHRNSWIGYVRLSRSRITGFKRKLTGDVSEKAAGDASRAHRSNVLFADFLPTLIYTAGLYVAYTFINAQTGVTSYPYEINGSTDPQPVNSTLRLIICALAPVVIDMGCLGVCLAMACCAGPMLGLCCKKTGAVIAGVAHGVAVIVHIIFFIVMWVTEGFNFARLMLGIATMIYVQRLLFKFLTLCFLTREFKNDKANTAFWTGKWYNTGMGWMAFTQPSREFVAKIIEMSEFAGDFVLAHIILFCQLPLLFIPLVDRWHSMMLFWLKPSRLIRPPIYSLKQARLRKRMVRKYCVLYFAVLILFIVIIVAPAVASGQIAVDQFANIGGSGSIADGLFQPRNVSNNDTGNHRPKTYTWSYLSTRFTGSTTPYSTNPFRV
T1 sequence (O42825 1-195 partner limits assumed): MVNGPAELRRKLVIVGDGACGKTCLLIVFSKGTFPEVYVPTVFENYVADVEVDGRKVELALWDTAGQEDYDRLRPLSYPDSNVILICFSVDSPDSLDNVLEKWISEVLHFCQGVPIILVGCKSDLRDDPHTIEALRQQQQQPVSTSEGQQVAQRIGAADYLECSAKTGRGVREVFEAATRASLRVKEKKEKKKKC

Compound | Inhibition of the Glucan Synthase of Candida Albicans
1-[(4R,5R)-4,5-dihydroxy-N2-[[[(3β, 22E)-ergosta-5,7,22-trien-3-yl]oxy]carbonyl]-L-ornithine]-mulundocandin [Example 3] | good activity
CC(C)=CCCC(C)C1CCC2(C)C3=C(CCC12C)C1(C)CCC(OC(=O)NC2CC(O)C(O)NC(=O)C(CO)NC(=O)C4C(O)C(C)CN4C(=O)C(C(O)Cc4ccc(O)cc4)NC(=O)C4CC(O)CN4C(=O)C(C(C)O)NC2=O)C(C)(C)C1CC3 [Example 2, 1-[(4R,5R)-4,5-dihydroxy-N2-[[[(3β)-lanosta-8,24-dien-3-yl]oxy]carbonyl]-L-ornithine]-deoxymulundocandin] (X1-[ξOrn(4,5-diOH)]T[Hyp][ξhTyr(βOH)][ξPro(3ξ-OH,4ξ-Me)]S; lactam 1-C; configuration not given here) | good activity
